Like-named read-outs stand apart in the source and are kept apart here.
Key:
[1] = test system: buffy coat neutrophils and monocytes (PI3K-gamma); assay: Isolated Leukocyte oxidative burst; format: cell-based; settings: absence of serum, read-out: IC50 Average ± Standard Deviation
Description: Neutrophils, monocytes and macrophages are key mediators of innate immunity. They release reactive oxygen species (ROS) as part of the innate immune inflammatory response. ROS production is induced by inflammatory mediators like chemokines, bacterial peptides and complement that recruit the innate immune cells to the site of inflammation. These inflammatory mediators trigger activation of PI3K-gamma and initiate a downstream signaling cascade that leads to the assembly of the complete NADPH oxidase complex at the plasma membrane generating ROS. PI3K-gamma functional activity was measured in whole blood and huffy coat neutrophils and monocytes via the generation of ROS. The cells are stimulated with TNF-alpha for 10 minutes, then with bacterial cell wall-derived chemotactic peptide, fMLP, for 20 minutes, and loaded with a non-fluorescent dye […] (DHR). ROS produced by the cells oxidizes DHR to fluorescent rhodamine causing an increase in fluorescent rhodamine content in the cells. PI3K-gamma functional activity is measured by the ability of neutrophils and monocytes to generate ROS following fMLP stimulation. Leukocytes and whole blood samples were analyzed on a BD FACSCalibur™ to quantitate cells positive for fluorescent rhodamine. Buffy coat cells generate IC50S in the absence of serum and whole blood assay generates IC50S in the presence of serum.

Purified human B cells = assay: Human B Cell Proliferation Assay; format: cell-based
Description: B cells are highly dependent on PI3Kδ for their development and activity. […] has an essential and non-redundant role in signaling via the B cell receptor (BCR) complex. Both IgM induced Ca+ influx and proliferation are attenuated in mice lacking PI3K-δ or with PI3K-δ inhibitors. PI3K-gamma has no role to play in any B cell activity. The specificity of the BCR complex for the […] to evaluate the extent of […] inhibition in cells. Purified human B cells are stimulated with anti-IgM in the presence of test compounds. Four days later cell viability/proliferation was measured using cell titer-glo to measure the ATP content of the cells in the well. Lack of or reduced proliferation is a measure of the extent of […].

HUVECs = assay: HUVEC Proliferation Assay; format: cell-based, human; settings: for IC50: Homo sapiens, HUVEC
Procedure: PI3Ks are important signaling molecules downstream of a number of growth factors that regulate cell survival, growth and cell cycle entry. Both PI3K-alpha and PI3K-beta isoforms regulate cell cycle entry; inhibition of either isoform leads to reduced cell growth. HUVECs are primary human umbilical vein endothelial cells which express both the PI3Kα and PI3Kβ isoforms. Inhibition of either or both PI3K-alpha or PI3K-beta isoforms will inhibit the cell growth of HUVECs. Compounds are plated onto HUVECs, cell proliferation/viability is measure 96 hours post compound treatment using cell titer-glo to measure the ATP content of the cells in the well. Lack of or reduced proliferation is a measure of the extent of PI3K-alpha and/or PI3K-beta inhibition.

CYP1A2 = CYP1A2 (Homo sapiens, UniProt P05177); assay: Metabolism by Recombinant CYP Enzymes; format: in vitro ADME; settings: 1 μM, recombinant CYP1A2, NADPH
Procedure: (§1) Microsomes that contained recombinant CYP enzymes (CYP1A2, 2B6, 2C8, 2C9, 2C19, 2D6, 2E1 and 3A4) were used to determine which CYP catalyzes the oxidation of Compound 1. Accordingly, Compound 1 (1 μM) was incubated with individual recombinant CYPs in the presence of the cofactor NADPH. The percent parent drug remaining at the end of the incubation period was determined by LC-MS/MS and compared to that present at the beginning.

CYP2B6 = CYP2B6 (Homo sapiens, UniProt P20813); assay: Metabolism by Recombinant CYP Enzymes; format: in vitro ADME; settings: 1 μM, recombinant CYP2B6, NADPH
Procedure: as §1

CYP2C19 = CYP2C19 (Homo sapiens, UniProt P33261); assay: Metabolism by Recombinant CYP Enzymes; format: in vitro ADME; settings: 1 μM, recombinant CYP2C19, NADPH
Procedure: as §1

CYP2C8 = CYP2C8 (Homo sapiens, UniProt P10632); assay: Metabolism by Recombinant CYP Enzymes; format: in vitro ADME; settings: 1 μM, recombinant CYP2C8, NADPH
Procedure: as §1

CYP2D6 = CYP2D6 (Homo sapiens, UniProt P10635); assay: Metabolism by Recombinant CYP Enzymes; format: in vitro ADME; settings: 1 μM, recombinant CYP2D6, NADPH
Procedure: as §1

CYP2E1 = CYP2E1 (Homo sapiens, UniProt P05181); assay: Metabolism by Recombinant CYP Enzymes; format: in vitro ADME; settings: 1 μM, recombinant CYP2E1, NADPH
Procedure: as §1

CYP3A4 = CYP3A4 (Homo sapiens, UniProt P08684); assay: Metabolism by Recombinant CYP Enzymes; format: in vitro ADME; settings: 1 μM
Procedure: as §1

[2] = Oral pharmacokinetics / bioavailability; format: in vivo; settings: single oral; for AUC / AUC(0-inf) / Cmax / MRT / Tmax / half-life: in vivo
Description: The bioavailability in monkey (greater than 100%) may be explained by the tenfold difference between the IV and oral doses. Compound 1 was rapidly absorbed in all species, with maximum systemic concentration observed within approximately one to three hours of dosing.

[3] = Dog, 3 mg/kg nominal, spray-dried dispersion
[4] = Monkey, 5 mg/kg nominal, spray-dried dispersion
[5] = Mouse, 1 mg/kg nominal, 0.2% MC/1% SLS

CYP3A4, sequence (P08684 whole entry): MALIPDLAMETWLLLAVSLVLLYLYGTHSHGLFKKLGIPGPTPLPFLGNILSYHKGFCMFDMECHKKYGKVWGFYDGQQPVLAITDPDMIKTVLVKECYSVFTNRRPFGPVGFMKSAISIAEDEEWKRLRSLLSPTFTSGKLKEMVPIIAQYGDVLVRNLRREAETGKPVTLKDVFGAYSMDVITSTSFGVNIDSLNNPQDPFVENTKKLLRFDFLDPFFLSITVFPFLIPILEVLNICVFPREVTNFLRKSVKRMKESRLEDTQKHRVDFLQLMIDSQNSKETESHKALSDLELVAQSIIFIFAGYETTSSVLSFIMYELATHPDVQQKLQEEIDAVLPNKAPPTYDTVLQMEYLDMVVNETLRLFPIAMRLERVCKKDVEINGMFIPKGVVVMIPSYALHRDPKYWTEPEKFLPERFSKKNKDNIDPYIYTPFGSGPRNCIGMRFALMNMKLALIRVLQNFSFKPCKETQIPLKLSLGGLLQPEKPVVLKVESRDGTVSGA
CYP2D6, sequence (P10635 whole entry): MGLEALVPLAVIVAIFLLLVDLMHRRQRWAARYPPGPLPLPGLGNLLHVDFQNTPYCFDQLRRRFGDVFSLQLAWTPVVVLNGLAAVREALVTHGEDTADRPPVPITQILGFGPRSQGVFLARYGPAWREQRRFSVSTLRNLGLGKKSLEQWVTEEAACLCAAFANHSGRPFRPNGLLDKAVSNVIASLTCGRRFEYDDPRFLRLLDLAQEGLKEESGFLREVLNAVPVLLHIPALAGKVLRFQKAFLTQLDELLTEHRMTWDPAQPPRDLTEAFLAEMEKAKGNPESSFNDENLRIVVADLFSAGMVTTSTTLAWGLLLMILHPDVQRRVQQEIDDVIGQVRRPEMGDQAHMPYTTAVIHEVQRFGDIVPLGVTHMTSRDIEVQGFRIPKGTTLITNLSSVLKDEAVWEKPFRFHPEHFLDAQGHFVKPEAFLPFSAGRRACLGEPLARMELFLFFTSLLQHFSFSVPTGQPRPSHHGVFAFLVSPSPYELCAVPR
CYP2C19, sequence (P33261 whole entry): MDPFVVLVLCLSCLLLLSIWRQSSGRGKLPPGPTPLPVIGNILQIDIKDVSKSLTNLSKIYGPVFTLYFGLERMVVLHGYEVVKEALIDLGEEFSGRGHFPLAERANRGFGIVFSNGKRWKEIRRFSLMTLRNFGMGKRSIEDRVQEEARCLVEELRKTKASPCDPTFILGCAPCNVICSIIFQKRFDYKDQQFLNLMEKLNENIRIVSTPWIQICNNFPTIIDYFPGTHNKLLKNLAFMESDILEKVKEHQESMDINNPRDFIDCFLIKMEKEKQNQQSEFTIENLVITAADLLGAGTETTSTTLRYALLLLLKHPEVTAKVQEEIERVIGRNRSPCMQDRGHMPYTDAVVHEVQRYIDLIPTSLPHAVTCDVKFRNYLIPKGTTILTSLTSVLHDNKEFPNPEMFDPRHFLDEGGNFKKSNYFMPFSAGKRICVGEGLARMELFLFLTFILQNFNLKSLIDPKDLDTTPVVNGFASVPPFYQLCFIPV
CYP2E1, sequence (P05181 whole entry): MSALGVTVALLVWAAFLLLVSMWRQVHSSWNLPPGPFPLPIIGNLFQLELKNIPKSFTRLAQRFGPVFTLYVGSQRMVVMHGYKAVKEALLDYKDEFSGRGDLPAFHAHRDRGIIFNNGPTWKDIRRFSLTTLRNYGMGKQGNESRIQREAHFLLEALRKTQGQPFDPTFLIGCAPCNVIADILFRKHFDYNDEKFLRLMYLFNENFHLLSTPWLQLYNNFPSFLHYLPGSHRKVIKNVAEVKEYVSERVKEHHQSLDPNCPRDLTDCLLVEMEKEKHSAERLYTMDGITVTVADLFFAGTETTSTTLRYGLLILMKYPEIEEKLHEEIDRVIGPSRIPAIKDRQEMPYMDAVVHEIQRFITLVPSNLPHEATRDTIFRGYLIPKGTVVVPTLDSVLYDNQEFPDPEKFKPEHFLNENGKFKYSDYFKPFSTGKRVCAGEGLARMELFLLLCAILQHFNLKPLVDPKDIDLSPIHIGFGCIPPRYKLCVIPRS
CYP2B6, sequence (P20813 whole entry): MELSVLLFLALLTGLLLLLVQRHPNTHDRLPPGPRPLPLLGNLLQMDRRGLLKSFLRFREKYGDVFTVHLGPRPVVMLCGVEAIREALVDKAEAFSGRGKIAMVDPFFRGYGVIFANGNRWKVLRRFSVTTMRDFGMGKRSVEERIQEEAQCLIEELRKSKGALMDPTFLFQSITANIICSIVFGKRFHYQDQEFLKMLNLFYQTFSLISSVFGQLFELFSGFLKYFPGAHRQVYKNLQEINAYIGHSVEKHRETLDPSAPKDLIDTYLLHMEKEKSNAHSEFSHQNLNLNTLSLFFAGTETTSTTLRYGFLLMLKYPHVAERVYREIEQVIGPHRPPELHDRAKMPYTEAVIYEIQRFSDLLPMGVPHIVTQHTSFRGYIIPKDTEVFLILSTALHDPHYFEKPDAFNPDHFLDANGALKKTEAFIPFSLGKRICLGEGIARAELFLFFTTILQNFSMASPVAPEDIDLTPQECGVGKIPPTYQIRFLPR
CYP2C8, sequence (P10632 whole entry): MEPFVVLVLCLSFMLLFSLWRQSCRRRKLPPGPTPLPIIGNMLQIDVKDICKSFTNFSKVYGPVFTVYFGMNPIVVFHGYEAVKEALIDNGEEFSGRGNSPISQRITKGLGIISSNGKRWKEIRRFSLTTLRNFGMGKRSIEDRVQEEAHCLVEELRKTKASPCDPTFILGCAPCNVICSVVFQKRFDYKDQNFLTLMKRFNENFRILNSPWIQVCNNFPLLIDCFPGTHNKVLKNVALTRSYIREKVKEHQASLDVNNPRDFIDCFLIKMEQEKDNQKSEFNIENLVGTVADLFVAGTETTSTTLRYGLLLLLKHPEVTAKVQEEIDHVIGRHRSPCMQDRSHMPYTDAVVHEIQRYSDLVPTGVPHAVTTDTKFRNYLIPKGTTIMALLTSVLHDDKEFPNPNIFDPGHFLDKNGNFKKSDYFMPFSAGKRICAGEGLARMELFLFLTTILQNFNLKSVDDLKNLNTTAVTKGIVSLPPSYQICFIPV
CYP1A2, sequence (P05177 whole entry): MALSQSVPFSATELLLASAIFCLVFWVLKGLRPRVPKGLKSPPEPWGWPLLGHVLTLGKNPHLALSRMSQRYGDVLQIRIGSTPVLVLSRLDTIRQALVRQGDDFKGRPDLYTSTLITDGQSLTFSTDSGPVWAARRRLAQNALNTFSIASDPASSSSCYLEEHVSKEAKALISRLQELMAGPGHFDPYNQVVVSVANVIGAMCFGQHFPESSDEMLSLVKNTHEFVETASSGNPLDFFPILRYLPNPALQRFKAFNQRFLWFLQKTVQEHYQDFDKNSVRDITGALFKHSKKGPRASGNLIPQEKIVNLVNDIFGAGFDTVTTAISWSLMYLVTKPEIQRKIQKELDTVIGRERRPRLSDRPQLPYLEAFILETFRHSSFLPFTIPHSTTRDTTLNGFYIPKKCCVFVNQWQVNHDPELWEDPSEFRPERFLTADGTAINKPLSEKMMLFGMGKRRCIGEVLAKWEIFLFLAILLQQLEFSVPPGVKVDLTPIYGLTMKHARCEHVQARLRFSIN

Cc1cc(-c2cncc([C@@H](O)C(F)(F)F)c2)nc2c1C(=O)N(c1cnn(CC(F)F)c1)C2(C)C [Compound 1, (R)-6-(1-(2,2-difluoroethyl)-1H-pyrazol-4-yl)-4,7,7-trimethyl-2-(5-(2,2,2-trifluoro-1-hydroxyethyl)pyridin-3-yl)-6,7-dihydro-5H-pyrrolo[3,4-b]pyridin-5-one]
IC50 [1]: 220 nM
selectivity window over PI3K-δ (Purified human B cells; B cell proliferation): 11 fold
IC50 (Purified human B cells; Homo sapiens, 96 h, B cell/IgM/Proliferation, four days, read-out: IC50 Avg +/− SD): 3.05 ± 0.44 µM
selectivity over PI3K-delta in cell based assays (Purified human B cells; summary): 12 fold
selectivity over PI3K-alpha/beta (HUVECs; HUVEC proliferation): > 74 fold
IC50 (HUVECs; 96 h, HUVEC Proliferation, 96 hours, PI3K-alpha/beta dependent, read-out: IC50 Avg +/− SD): > 19 µM
IC50 (HUVECs; footnote * of Table 4, no anchor in the table, read-out: Individual assay data (IC50)): > 20 µM
selectivity over PI3K-alpha and PI3K-beta in cell based assays (HUVECs; summary): 40-80 fold
% Parent Remaining @ 30 min (CYP1A2): 105%
% Parent Remaining @ 30 min (CYP2B6): 107%
% Parent Remaining @ 30 min (CYP2C19): 118%
% Parent Remaining @ 30 min (CYP2C8): 105%
% Parent Remaining @ 30 min (CYP2D6): 100%
% Parent Remaining @ 30 min (CYP2E1): 105%
Metabolism by recombinant CYPs (CYP3A4; in words): detected only in the incubation with CYP3A4
% Parent Remaining @ 30 min (CYP3A4; recombinant CYP3A4, NADPH): 92%
DN_AUCINF [2, 3]: 3.1 µg·h/mL
F ([2]; Dog, 3 mg/kg nominal, spray-dried dispersion, 3 mg/kg): 77%
DN_AUCINF [2, 4]: 2.5 µg·h/mL
DN_AUCINF [2, 5]: 2.76 µg·h/mL
F ([2]; Mouse, 1 mg/kg nominal, 0.2% MC/1% SLS, 1 mg/kg): 81%
AUC [2, 3]: 9110 ng·h/mL
AUC(0-inf) [2, 3]: 9290 ng·h/mL
Cmax [2, 3]: 1290 ng/mL
MRT [2, 3]: 9 h
Tmax [2, 3]: 0.83 h
half-life [2, 3]: 438 min
AUC [2, 4]: 12300 ng·h/mL
AUC(0-inf) [2, 4]: 12500 ng·h/mL
Cmax [2, 4]: 1350 ng/mL
MRT [2, 4]: 10.5 h
Tmax [2, 4]: 1.67 h
half-life [2, 4]: 510 min
AUC [2, 5]: 2720 ng·h/mL
AUC(0-inf) [2, 5]: 2760 ng·h/mL
Cmax [2, 5]: 290 ng/mL
MRT [2, 5]: 5.8 h
Tmax [2, 5]: 2 h
half-life [2, 5]: 228 min
